The values that follow come from ChEMBL document CHEMBL3784937, “Synthesis and biological evaluation of indeno[1,5]naphthyridines as topoisomerase I (TopI) inhibitors with antiproliferative activity” (Eur J Med Chem, 2016).

The species named for experiment [1] is Homo sapiens. Put plainly: Inhibition of human recombinant topoisomerase 1B expressed in Saccharomyces cerevisiae using plasmid DNA as substrate assessed as DNA relaxation at 100 uM preincubated with substrate for 15 mins followed by enzyme addition after 15 secs to 3 mins by agarose gel electrophoresis.
The species named for experiment [2] is Homo sapiens. Put plainly: Inhibition of human recombinant topoisomerase 1B expressed in Saccharomyces cerevisiae using plasmid DNA as substrate assessed as DNA relaxation at 100 uM preincubated with enzyme for 15 mins followed by substrate addition after 1 min by agarose gel electrophoresis.
Experiment [3] in a line: Cytotoxicity against human BT20 cells assessed as growth inhibition after 48 hrs by CCK8 assay. The conditions noted are these: BT-20, 48 h. The format is functional, cell-based. (Tetrazolium assays rely on reduction of a dye to a coloured formazan, in cell work by metabolically active cells.)
A short description of experiment [4]: Cytotoxicity against human SKOV3 cells assessed as growth inhibition after 48 hrs by CCK8 assay. The conditions noted are these: SK-OV-3, 48 h. The format is functional, cell-based.
The species entered for experiment [5] is Homo sapiens. Put plainly: Inhibition of human recombinant topoisomerase 1B expressed in Saccharomyces cerevisiae using plasmid DNA as substrate assessed as DNA relaxation at 100 uM preincubated with enzyme for 15 mins followed by substrate addition after 3 min by agarose gel electrophoresis.
The subject of the next experiment is A549. Put plainly: Cytotoxicity against human A549 cells assessed as growth inhibition after 48 hrs by CCK8 assay. The conditions noted are these: A549, 48 h. It counts as functional, cell-based.
The species entered for experiment [6] is Homo sapiens. Put plainly: Inhibition of human recombinant topoisomerase 1B expressed in Saccharomyces cerevisiae using plasmid DNA as substrate assessed as DNA relaxation at 100 uM preincubated with enzyme for 15 mins followed by substrate addition after 15 secs by agarose gel electrophoresis.
For experiment [7], the species on record is Homo sapiens. The experiment in a line: Inhibition of human recombinant topoisomerase 1B expressed in Saccharomyces cerevisiae using plasmid DNA as substrate assessed as DNA relaxation at 50 uM preincubated with enzyme for 15 mins followed by substrate addition after 50 secs by agarose gel electrophoresis.
The nature of experiment [8]: Inhibition of human recombinant topoisomerase 1B expressed in Saccharomyces cerevisiae using plasmid DNA as substrate assessed as DNA relaxation at 25 uM preincubated with enzyme for 15 mins followed by substrate addition after 50 secs by agarose gel electrophoresis.
The species entered for experiment [9] is Homo sapiens. The experiment in a line: Inhibition of human recombinant topoisomerase 1B expressed in Saccharomyces cerevisiae using plasmid DNA as substrate assessed as DNA relaxation at 100 uM after 15 secs to 3 mins by agarose gel electrophoresis.

Calls of active or inactive are those of the source. The calls are words filed in the database; no cut-off is given here.

Usually IC50 stands for the point on the concentration scale where inhibition reaches its midpoint. For `c1ccc2c(c1)C[C@@H]1[C@H]2c2ncccc2N[C@@H]1c1ccncc1` (relative stereo), the inhibition entry in the experiment filed under Homo sapiens [1], in the experiment listed under Homo sapiens [2], in the experiment listed under Homo sapiens [5] and in the experiment listed under Homo sapiens [6] was “Active” throughout. In addition, the IC50 in experiment [3] turned out to be 24.4 µM; in experiment [4], 55.4 µM; in the experiment with A549 it was 10.6 µM.

`O=[N+]([O-])c1ccc([C@H]2Nc3cccnc3[C@H]3c4ccccc4C[C@H]32)cc1` (relative stereo): the inhibition result in the experiment filed under Homo sapiens [2], in the experiment filed under Homo sapiens [5] and in the experiment listed under Homo sapiens [6] was “Active” throughout. Besides, the IC50 in experiment [3] is > 100 µM; in [4], > 100 µM; in the experiment on A549, 10.5 µM.

In the case of `FC(F)(F)c1ccc([C@H]2Nc3cccnc3[C@H]3c4ccccc4C[C@H]32)cc1` (relative stereo), the inhibition entry (in the experiment listed under Homo sapiens [7]; in the experiment listed under Homo sapiens [2]; in the experiment filed under Homo sapiens [5]; in experiment [8]; in the experiment filed under Homo sapiens [6]) was “Active” throughout. Besides, the IC50 in [3] was 63.9 µM; in [4], > 100 µM; with A549 it was 4.2 µM.

Take `FC(F)(F)c1ccc(-c2nc3cccnc3c3c2Cc2ccccc2-3)cc1`: the inhibition entry in the experiment listed under Homo sapiens [2], in the experiment listed under Homo sapiens [5] and in the experiment listed under Homo sapiens [6] was “Active” in each case. Moreover, the IC50 (in experiment [3]; in experiment [4]; in the experiment on A549) was > 100 µM each time.

`O=[N+]([O-])c1ccc(-c2nc3cccnc3c3c2Cc2ccccc2-3)cc1`: the inhibition result in the experiment filed under Homo sapiens [2], in the experiment listed under Homo sapiens [5] and in the experiment filed under Homo sapiens [6] was “Active” in each case. The results for the IC50 (in experiment [3]; in experiment [4]; with A549) were 61.3 µM, 50.8 µM and 5.7 µM, respectively.

Turning to `c1ccc(-c2nc3cccnc3c3c2Cc2ccccc2-3)cc1`, the inhibition entry (in the experiment listed under Homo sapiens [7]; in the experiment filed under Homo sapiens [2]; in the experiment listed under Homo sapiens [5]; in experiment [8]; in the experiment filed under Homo sapiens [6]) was “Active” each time. Also, the figures for the IC50 (in experiment [3]; in [4]; in the experiment on A549) were > 100 µM, 47.9 µM and > 100 µM, respectively.

Take `O=C1c2ccccc2-c2c1c(-c1cccc(F)c1)nc1cccnc21`: the inhibition result (in the experiment filed under Homo sapiens [7]; in the experiment listed under Homo sapiens [2]; in the experiment listed under Homo sapiens [5]; in [8]; in the experiment filed under Homo sapiens [6]) was “Active” each time. Further, the IC50 (in [3]; in experiment [4]; with A549) was > 100 µM each time.

Regarding `O=C1c2ccccc2-c2c1c(-c1ccc(F)c(F)c1)nc1cccnc21`, the inhibition result in the experiment listed under Homo sapiens [2], in the experiment filed under Homo sapiens [5] and in the experiment listed under Homo sapiens [6] was “Active” throughout. Also, the IC50 was > 100 µM in experiment [3], > 100 µM in experiment [4] and 20.7 µM in the experiment with A549.

As for `Fc1ccc(-c2nc3cccnc3c3c2Cc2ccccc2-3)cc1F`, the inhibition result in the experiment listed under Homo sapiens [2], in the experiment filed under Homo sapiens [5] and in the experiment listed under Homo sapiens [6] was “Active” in each case. For the same molecule, the IC50 in experiment [3] was > 100 µM; in [4], > 100 µM; in the experiment with A549, 48.6 µM.

Take `CC[C@@]1(O)C(=O)OCc2c1cc1n(c2=O)Cc2cc3ccccc3nc2-1` [CAMPTOTHECIN]: the inhibition entry in the experiment listed under Homo sapiens [7], in the experiment listed under Homo sapiens [2], in the experiment listed under Homo sapiens [9] and in the experiment filed under Homo sapiens [6] was “Active” in each case. The figures for the IC50 in [3] and in experiment [4] were 0.07 µM and 0.0055 µM, respectively. In addition, the inhibition result in the experiment filed under Homo sapiens [5] was “inactive”.

As for `O=C1c2ccccc2-c2c1c(-c1ccccc1)nc1cccnc21`, the inhibition entry (in the experiment listed under Homo sapiens [7]; in the experiment listed under Homo sapiens [2]; in the experiment filed under Homo sapiens [5]; in experiment [8]; in the experiment listed under Homo sapiens [6]) was “Active” each time. Further, the concentration for half-maximal inhibition (IC50) worked out at 14.1 µM in experiment [3], 1.9 µM in experiment [4] and 23.7 µM in the experiment with A549.

On to `Fc1ccc([C@H]2Nc3cccnc3[C@H]3c4ccccc4C[C@H]32)c(F)c1` (relative stereo), for which the inhibition result in the experiment filed under Homo sapiens [1], in the experiment listed under Homo sapiens [2], in the experiment filed under Homo sapiens [5] and in the experiment filed under Homo sapiens [6] was “Active” in each case. In addition, the IC50 in [3] was 86.4 µM; in [4] it was > 100 µM; in the experiment with A549, 6.4 µM.

As for `O=C1c2ccccc2-c2c1c(-c1ccc(F)cc1F)nc1cccnc21`, the inhibition result in the experiment listed under Homo sapiens [2], in the experiment listed under Homo sapiens [5] and in the experiment listed under Homo sapiens [6] was “Active” in each case. In addition, the IC50 in experiment [3] was > 100 µM; in [4] it was > 100 µM; with A549, 34.1 µM.

In the case of `Fc1ccc([C@H]2Nc3cccnc3[C@H]3c4ccccc4C[C@H]32)cc1F` (relative stereo), the inhibition entry in the experiment listed under Homo sapiens [1], in the experiment filed under Homo sapiens [2], in the experiment listed under Homo sapiens [5] and in the experiment listed under Homo sapiens [6] was “Active” in each case. The IC50 is > 100 µM in experiment [3], > 100 µM in experiment [4] and 27.3 µM in the experiment on A549.

In the case of `c1ccc2c(c1)Cc1c(-c3ccncc3)nc3cccnc3c1-2`, the inhibition entry in the experiment filed under Homo sapiens [2], in the experiment listed under Homo sapiens [5] and in the experiment filed under Homo sapiens [6] was “Active” throughout. Besides, the IC50 was 32.9 µM in experiment [3], 10.5 µM in experiment [4] and 2.9 µM in the experiment on A549.

Take `Fc1cccc([C@H]2Nc3cccnc3[C@H]3c4ccccc4C[C@H]32)c1` (relative stereo): the inhibition entry (in the experiment listed under Homo sapiens [1]; in the experiment filed under Homo sapiens [7]; in the experiment listed under Homo sapiens [2]; in the experiment listed under Homo sapiens [5]; in [8]; in the experiment listed under Homo sapiens [6]) was “Active” in each case. The figures for the IC50 (in experiment [3]; in experiment [4]; in the experiment with A549) were 15.5 µM, > 100 µM and 3.5 µM, respectively.

As for `O=C1c2ccccc2-c2c1c(-c1ccc(C(F)(F)F)cc1)nc1cccnc21`, the inhibition entry in the experiment listed under Homo sapiens [2], in the experiment filed under Homo sapiens [5] and in the experiment listed under Homo sapiens [6] was “Active” in each case. Moreover, the IC50 (in experiment [3]; in experiment [4]; in the experiment with A549) was > 100 µM each time.

As to `OC1c2ccccc2-c2c1c(-c1ccc(C(F)(F)F)cc1)nc1cccnc21` (stereo unspecified), the inhibition result (in the experiment filed under Homo sapiens [7]; in the experiment listed under Homo sapiens [2]; in the experiment listed under Homo sapiens [5]; in experiment [8]; in the experiment filed under Homo sapiens [6]) was “Active” throughout. In addition, the IC50 (in experiment [3]; in [4]; in the experiment on A549) was > 100 µM each time.

As for `Fc1ccc(-c2nc3cccnc3c3c2Cc2ccccc2-3)c(F)c1`, the inhibition entry in the experiment listed under Homo sapiens [2], in the experiment filed under Homo sapiens [5] and in the experiment filed under Homo sapiens [6] was “Active” throughout. For the same molecule, the half-inhibitory concentration (IC50) in experiment [3] was found to be 39.6 µM; in [4], 6.4 µM; in the experiment on A549, 1.7 µM.

Regarding `OC1c2ccccc2-c2c1c(-c1ccccc1)nc1cccnc21` (stereo unspecified), the inhibition result in the experiment filed under Homo sapiens [2], in the experiment listed under Homo sapiens [5] and in the experiment listed under Homo sapiens [6] was “Active” in each case. In addition, the IC50 (in experiment [3]; in experiment [4]; in the experiment with A549) was > 100 µM in each case.

As for `Fc1cccc(-c2nc3cccnc3c3c2Cc2ccccc2-3)c1`, the inhibition entry (in the experiment filed under Homo sapiens [7]; in the experiment listed under Homo sapiens [2]; in the experiment listed under Homo sapiens [5]; in experiment [8]; in the experiment listed under Homo sapiens [6]) was “Active” in each case. Also, the IC50 (in experiment [3]; in experiment [4]; in the experiment on A549) was > 100 µM in each case.

Regarding `c1ccc([C@H]2Nc3cccnc3[C@H]3c4ccccc4C[C@H]32)cc1` (relative stereo), the inhibition entry in the experiment filed under Homo sapiens [2], in the experiment listed under Homo sapiens [5] and in the experiment listed under Homo sapiens [6] was “Active” throughout. Besides, the 50% inhibitory concentration (IC50) was > 100 µM in experiment [3], > 100 µM in experiment [4] and 5.3 µM in the experiment with A549.
